Like-named read-outs stand apart in the source and are kept apart here.
Tests used:
Pancreatin = Pancreatin stability; format: in vitro ADME, porcine; conditions: 5 µM
Procedure: Pancreatin Stability: Stability studies were conducted by incubating prodrug (5 µM) with 1 % (w/v) pancreatin (Sigma, P-1625, from porcine pancreas) in 0.025 M Tris buffer containing 0.5 M NaCl (pH 7.5) at 37 °C for 60 min. The reaction was stopped by addition of 2 volumes of methanol. After centrifugation at 14,000 rpm for 10 min, the supernatant was removed and analyzed by LC/MS/MS.

[1] = aqueous buffer
Procedure: (§1) The stabilities of prodrugs were evaluated in one or more in vitro systems using a variety of tissue preparations following methods known in the art. The chemical stability of prodrugs in aqueous buffers at pH's of 2.0, 7.4 and 8.0 were also measured. […] Each preparation was incubated with test compound at 37°C for one hour. Aliquots (50 µL) were removed at 0, 30, and 60 min and quenched with 0.1 % trifluoroacetic acid in acetonitrile.

[2] = rat, plasma, 2 µM
Procedure: as §1

[3] = human, plasma, 2 µM
Procedure: as §1

[4] = rat, 2 µM
Procedure: as §1

[5] = human, 2 µM
Procedure: as §1

[6] = human, s9, 1 h, 5 µM
Procedure: For stability studies, prodrug (5 µM) was incubated in Caco-2 homogenate S9 fraction (0.5 mg protein per mL) for 60 min at 37°C. Concentrations of intact prodrug and released baclofen were determined at zero time and 60 minutes using LC/MS/MS.

[7] = 1 % (w/v) pancreatin, pH 7.5, 37 °C, after 60 min

Compound | % of Baclofen Released (Pancreatin; [7]) | % of Prodrug Remaining (Pancreatin; [7]) | % of Baclofen Released ([1]; 1 h, pH 2) | % of Prodrug Remaining ([1]; 1 h, pH 2) | % of Baclofen Released ([1]; 1 h, pH 7.4) | % of Prodrug Remaining ([1]; 1 h, pH 7.4) | % of Baclofen Released ([1]; 1 h, pH 8) | % of Prodrug Remaining ([1]; 1 h, pH 8) | % of Baclofen Released ([2]; 1 h) | % of Prodrug Remaining ([2]; 1 h) | % of Baclofen Released ([3]; 1 h) | % of Prodrug Remaining ([3]; 1 h) | % of Baclofen Released ([4]; s9, 1 h) | % of Prodrug Remaining ([4]; s9, 1 h) | % of Baclofen Released ([5]; s9, 1 h) | % of Prodrug Remaining ([5]; s9, 1 h) | % of Baclofen Released [6] | % of Prodrug Remaining [6] | other results
CC(OC(=O)NC[C@H](CC(=O)[O-])c1ccc(Cl)cc1)OC(=O)C(C)C.[Na+] (stereo partly drawn) [(33), Sodium 4-[(1-Isobutanoyloxyethoxy)carbonylamino]-(3R)-(4-chlorophenyl)-butanoate] | 52% | 46% | 0% | 100% | 0% | 72% | 0% | 101% | 30% | 73% | 4% | 96% | 101% | 4% | 101% | 3% | 95% | 3% | –
CC(C)C(=O)O[C@H](C)OC(=O)NC[C@H](CC(=O)[O-])c1ccc(Cl)cc1.[Na+] [(34), Sodium 4-{[(1S)-Isobutanoyloxyethoxy]-carbonylamino}-(3R)-(4-chlorophenyl) -butanoate] | 18% | 81% | 0% | 100% | 0% | 100% | 0% | 100% | 18% | 78% | 2% | 90% | 100% | 1% | 100% | 3% | 100% | 2% | –
CC(C)C(=O)O[C@H](OC(=O)NC[C@H](CC(=O)[O-])c1ccc(Cl)cc1)C(C)C.[Na+] [(100), Sodium 4-{[(1R)-Isobutanoyloxyisobutoxy]carbonylamino}-(3R)-(4-chlorophenyl) -butanoate] | 27% | 68% | 0% | 101% | 0% | 98% | 0% | 95% | 64% | 9% | 3% | 89% | 85% | 3% | 83% | 1% | 90% | 7% | –
CC(=O)OC(OC(=O)NC[C@H](CC(=O)[O-])c1ccc(Cl)cc1)C(C)C.[Na+] (stereo partly drawn) [(23), Sodium 4-[(1-Acetoxylsobutoxy)carbonylamino]1-(3R)-(4-chlorophenyl)-butanoate] | 24% | 82% | 0% | 107% | 1% | 89% | 2% | 90% | 93% | 11% | 3% | 96% | 107% | 3% | 105% | 4% | 87% | 15% | –
Sodium 4-[(1-Benzoyloxgyethoxy)carbonylaminol-(3R)-(4-chlorophenyl)-butanoate [(40)] | – | – | – | – | – | – | – | – | – | – | – | – | – | – | – | – | 15/85% | 15/85% | % of Baclofen Released (Pancreatin; pig, pancreatin, 1 h, pH 7.5): 43/58%; % of Prodrug Remaining (Pancreatin; pig, pancreatin, 1 h, pH 7.5): 43/58%; % of Baclofen Released ([1]; pH 2, 60 min): 103/0%; % of Prodrug Remaining ([1]; pH 2, 60 min): 103/0%; % of Baclofen Released ([1]; pH 7.4, 60 min): 100/0%; % of Prodrug Remaining ([1]; pH 7.4, 60 min): 100/0%; % of Baclofen Released ([1]; pH 8, 60 min): 107/2%; % of Prodrug Remaining ([1]; pH 8, 60 min): 107/2%; % of Baclofen Released ([2]; 60 min): 72/17%; % of Prodrug Remaining ([2]; 60 min): 72/17%; % of Baclofen Released ([3]; 60 min): 101/2%; % of Prodrug Remaining ([3]; 60 min): 101/2%; % of Baclofen Released ([4]; s9, 60 min): 8/96%; % of Prodrug Remaining ([4]; s9, 60 min): 8/96%; % of Baclofen Released ([5]; s9, 60 min): 1/105%; % of Prodrug Remaining ([5]; s9, 60 min): 1/105%
CC(C)C(=O)OC(OC(=O)NC[C@H](CC(=O)[O-])c1ccc(Cl)cc1)C1CCCCC1.[Na+] (stereo partly drawn) [(84), Sodium 4-[(1-Isobutanoyloxy-1-cyclohexylmethoxy)carbonylamino]-(3R)-(4-chlorophenyl)-butanoate] | 40% | 47% | 0% | 85% | 0% | 84% | 1% | 94% | 11% | 91% | 4% | 89% | 91% | 4% | 82% | 2% | 76% | 13% | –
CC(C)CC(=O)OCOC(=O)NC[C@H](CC(=O)[O-])c1ccc(Cl)cc1.[Na+] [(59), Sodium 4-[(3-Methylbutanoyloxymethoxy)carbonylamino]-(3R)-(4-chlorophenyl)-butano ate] | 50% | 46% | 0% | 103% | 1% | 103% | 2% | 97% | 85% | 2% | 11% | 77% | 85% | 2% | 82% | 1% | 104% | 3% | –
CCC[C@H](OC(=O)NC[C@H](CC(=O)[O-])c1ccc(Cl)cc1)OC(=O)C(C)C.[Na+] [(91), Sodium 4-{[(1S)-Isobutanoyloxybutoxy]carbonylamino}-(3R)-(4-chlorophenyl)-butanoate] | 78% | 11% | 0% | 100% | 0% | 97% | 1% | 94% | 10% | 80% | 2% | 83% | 70% | 22% | 78% | 1% | 107% | 6% | –
CCCC(=O)OC(OC(=O)NC[C@H](CC(=O)[O-])c1ccc(Cl)cc1)C1CCCCC1.[Na+] (stereo partly drawn) [(85), Sodium 4-[(1-Butanoyloxy-1-cyclohexylmethoxy)carbonylamino]-(3R)-(4-chlorophenyl)-butanoate] | 64% | 15% | 0% | 82% | 0% | 92% | 0% | 93% | 12% | 82% | 4% | 95% | 91% | 2% | 84% | 2% | 82% | 4% | –
O=C([O-])C[C@@H](CNC(=O)OCOC(=O)c1cccs1)c1ccc(Cl)cc1.[Na+] [(57), Sodium 4-[(2-Thienylcarbonyloxymethoxy)carbonylamino]-(3R)-(4-chlorophenyl)-butan oate] | 75% | 12% | 0% | 100% | 0% | 100% | 0% | 100% | 10% | 82% | 14% | 73% | 78% | 2% | 86% | 1% | 104% | 2% | –

From patent publication EP1660440B1, “ACYLOXYALKYL CARBAMATE PRODRUGS, METHODS OF SYNTHESIS AND USE” (priority 2003, dated 2005)
